O=C(NC(Cc1cc(=O)[nH]c2ccccc12)C(=O)O)c1ccc(Cl)cc1 (stereo not given)
Settings	solubility (mole fraction)
in PEG-400, 288.15 K	0.00236
in PEG-400, 293.15 K	0.0025
in PEG-400, 298.15 K	0.00264
in PEG-400, 303.15 K	0.00278
in PEG-400, 308.15 K	0.00292

solubility (mole fraction)
Settings	288.15 K	293.15 K	298.15 K	303.15 K	308.15 K
in acetone	1.01e-05	1.2e-05	1.43e-05	1.7e-05	2e-05
in acetonitrile	8.25e-07	1.07e-06	1.38e-06	1.74e-06	2.2e-06
in ethanol	7.58e-05	8.61e-05	9.68e-05	0.000109	0.000122
in ethyl acetate	1.91e-06	2.21e-06	2.56e-06	2.94e-06	3.38e-06
in glycerin	2.97e-06	3.45e-06	4.02e-06	4.63e-06	5.35e-06
in isopropanol	3.82e-05	4.75e-05	5.83e-05	7.17e-05	8.79e-05
in methanol	7.56e-05	8.55e-05	9.59e-05	0.000107	0.00012
in n-butanol	5.47e-05	6.51e-05	7.73e-05	9.12e-05	0.000107
in n-propanol	6.1e-05	7.1e-05	8.24e-05	9.55e-05	0.000109
in propylene glycol	0.000204	0.000224	0.000246	0.000268	0.000291
in water	5.17e-07	6.74e-07	8.69e-07	1.12e-06	1.43e-06
